Patent US6348461B1, “6,7-asymmetrically disubstituted quinoxalinecarboxylic acid derivatives, addition salts thereof, and processes for the preparation of both” (Kyorin Pharmaceutical Co., Ltd., priority 1997, dated 2002)
Structures can show the parent of a compound that is named as a salt.

SMILES	melting point
COc1ccc(NC(=O)OCc2cn(-c3cc4nc(C(=O)[O-])c(=O)[nH]c4cc3[N+](=O)[O-])cn2)cc1.[Na+] [Example 108]	265 to 267 °C (dec.)
O=C(O)Cc1cn(-c2cc3nc(C(=O)O)c(=O)[nH]c3cc2[N+](=O)[O-])cn1 [Example 303, 7-(4-(Carboxymethyl)imidazolyl)-3,4-dihydro-6-nitro-3-oxoquinoxaline-2-carboxylic Acid]	> 300 °C
O=C(NCc1cn(-c2cc3nc(C(=O)O)c(=O)[nH]c3cc2[N+](=O)[O-])cn1)Nc1ccc(C(=O)O)cc1 (as salt: salt) [Example 119, 7-(4-(((4-Carboxyphenyl)aminocarbonylamino)methyl)imidazolyl)-3,4-dihydro-6-nitro-3-oxoquinoxaline-2-carboxylic Acid]	300 °C (dec.)
O=C(O)c1nc2cc(C(F)(F)F)c([N+](=O)[O-])cc2[nH]c1=O [Example 163, 3,4-Dihydro-6-nitro-3-oxo-7-trifluoromethylquinoxaline-2-carboxylic Acid]	213 to 215 °C (dec.)
O=C(Cc1ccc(Br)cc1)Nc1cn(-c2cc3nc(C(=O)O)c(=O)[nH]c3cc2[N+](=O)[O-])ccc1=O [Example 136, 7-(3-((4-Bromobenzyl)carbonylamino)-4-pyridone-1-yl)-3,4-dihydro-6-nitro-3-oxoquinoxaline-2-carboxylic Acid]	240 to 242 °C (dec.)
Nc1cc2[nH]c(=O)c(C(=O)O)nc2cc1F [Example 72, 6-Amino-3,4-dihydro-7-fluoro-3-oxoquinoxaline-2-carboxylic Acid]	> 300 °C
O=C(Nc1ccc(C(=O)O)cc1)OCc1cn(-c2cc3nc(C(=O)O)c(=O)[nH]c3cc2[N+](=O)[O-])ccc1=O [Example 307, 7-(3-((N-(4-Carboxyphenyl)carbamoyloxy)methyl)-4-pyridone-1-yl)-3,4-dihydro-6-nitro-3-oxoquinoxaline-2-carboxylic Acid]	231 to 233 °C (dec.)
O=C(O)c1nc2cc(-n3ccc(=O)cc3)c(C(F)(F)F)cc2[nH]c1=O [Example 169, 3,4-Dihydro-3-oxo-7-(4-pyridone-1-yl)-6-trifluoro-methylquinoxaline-2-carboxylic Acid]	300 °C
Nc1cn(-c2cc3nc(C(=O)O)c(=O)[nH]c3cc2[N+](=O)[O-])ccc1=O [Example 142, 7-(3-Amino-4-pyridone-1-yl)-3,4-dihydro-6-nitro-3-oxoquinoxaline-2-carboxylic Acid]	> 300 °C
CN(C)Cc1cc2nc(C(=O)O)c(=O)[nH]c2cc1[N+](=O)[O-] [Example 67, 3,4-Dihydro-7-dimethylaminomethyl-6-nitro-3-oxoquinoxaline-2-carboxylic Acid]	> 300 °C
O=C(NCc1ccn(-c2cc3nc(C(=O)O)c(=O)[nH]c3cc2C(F)(F)F)c1)Nc1ccc(C(=O)O)cc1 [Example 79, 7-(3-(((4-Carboxyphenyl)aminocarbonylamino)-methyl)pyrrole-1-yl)-3,4-dihydro-3-oxo-6-trifluoromethylquinoxaline-2-carboxylic Acid]	234 to 236 °C (dec.)
O=C(NCc1cn(-c2cc3nc(C(=O)O)c(=O)[nH]c3cc2C(F)(F)F)cn1)Nc1ccc(C(=O)O)cc1 (as salt: salt) [Example 207, 7-(4-(((4-Carboxyphenyl)aminocarbonylamino)methyl)imidazole-1-yl)-3,4-dihydro-3-oxo-6-trifluoromethylquinoxaline-2-carboxylic Acid]	255 °C (dec.)
O=C(NCc1ccn(-c2cc3nc(C(=O)O)c(=O)[nH]c3cc2C(F)(F)F)c1)Nc1ccc(C(=O)O)cc1F [Example 80, 7-(3-(((4-Carboxy-2-fluorophenyl)aminocarbonylamino)-methyl)pyrrole-1-yl)-3,4-dihydro-3-oxo-6-trifluoromethylquinoxaline-2-carboxylic Acid]	249 to 251 °C (dec.)
O=C(NCc1ccn(-c2cc3nc(C(=O)O)c(=O)[nH]c3cc2C(F)(F)F)c1)Nc1ccc(Br)cc1 [Example 185, 7-(3-(((4-Bromophenyl)aminocarbonylamino)methyl)pyrrole-1-yl)-3,4-dihydro-3-oxo-6-trifluoromethylquinoxaline-2-carboxylic Acid]	196 to 198 °C (dec.)
O=C(O)c1nc2cc(Oc3cccc([N+](=O)[O-])c3)c([N+](=O)[O-])cc2[nH]c1=O	198 to 200 °C (dec.)
O=C(O)c1nc2cc(N3CCC(O)CC3)c([N+](=O)[O-])cc2[nH]c1=O [Example 61, 3,4-Dihydro-7-(4-hydroxypiperidine-1-yl)-6-nitro-3-oxoqinoxaline-2-carboxylic Acid]	253 to 255 °C
NC(=O)c1nc2cc(-n3ccc(=O)cc3)c([N+](=O)[O-])cc2[nH]c1=O [Example 70, 3,4-Dihydro-6-nitro-3-oxo-7-(4-pyridone-1-yl)quinoxaline-2-carboxamide]	> 300 °C

SMILES	melting point
O=C(Nc1cccc(C(=O)O)c1)OCc1cn(-c2cc3nc(C(=O)O)c(=O)[nH]c3cc2[N+](=O)[O-])cn1 [Example 116, 7-(4-((N-(3-Carboxyphenyl)carbamoyloxy)methyl)imidazolyl)-3,4-dihydro-6-nitro-3-oxoquinoxaline-2-carboxylic Acid]	272 to 274 °C (dec.)
O=C(NCc1cn(-c2cc3nc(C(=O)O)c(=O)[nH]c3cc2[N+](=O)[O-])cn1)Nc1ccccc1F [Example 118, 3,4-Dihydro-7-(4-(((2-fluorophenyl)aminocarbonylamino)methyl)imidazolyl)-6-nitro-3-oxoquinoxaline-2-carboxylic Acid]	300 °C
CCOC(=O)c1ccc(NC(=O)OCc2cn(-c3cc4nc(C(=O)O)c(=O)[nH]c4cc3[N+](=O)[O-])ccc2=O)cc1 [Example 306, 7-(3-((N-(4-Ethoxycarbonylphenyl)carbamoyloxy)methyl)-4-pyridone-1-yl)-3,4-dihydro-6-nitro-3-oxoquinoxaline-2-carboxylic Acid]	201 to 203 °C (dec.)
O=C(Nc1cccc(C(=O)O)c1)OCc1cn(-c2cc3nc(C(=O)O)c(=O)[nH]c3cc2[N+](=O)[O-])ccc1=O [Example 125, 7-(3-((N-(3-Carboxyphenyl)carbamoyloxy)methyl)-4-pyridone-1-yl)-3,4-dihydro-6-nitro-3-oxoquinoxaline-2-carboxylic Acid]	250 to 252 °C (dec.)
Nc1cc2nc(C(=O)O)c(=O)[nH]c2cc1[N+](=O)[O-] [Example 157, 7-Amino-3,4-dihydro-6-nitro-3-oxoquinoxaline-2-carboxylic Acid]	300 °C
O=C(O)c1nc2cc(N3CCN(Cc4ccccc4)CC3)c([N+](=O)[O-])cc2[nH]c1=O [Example 60, 7-(4-Benzylpiperazine-1-yl)-3,4-dihydro-6-nitro-3-oxoquinoxaline-2-carboxylic Acid]	278 to 280 °C
NC(=O)c1nc2cc(F)c([N+](=O)[O-])cc2[nH]c1=O [Example 69, 3,4-Dihydro-7-fluoro-6-nitro-3-oxoquinoxaline-2-carboxamide]	> 300 °C
O=C(Nc1ccc(Br)cc1)OCc1cn(-c2cc3nc(C(=O)O)c(=O)[nH]c3cc2[N+](=O)[O-])cn1 [Example 86, 7-(4-((N-(4-Bromophenyl)carbamoyloxy)methyl)imidazolyl)-3,4-dihydro-6-nitro-3-oxoquinoxaline-2-carboxylic Acid]	270 to 272 °C (dec.)
O=C(Nc1ccc(Br)cc1)Nc1cn(-c2cc3nc(C(=O)O)c(=O)[nH]c3cc2[N+](=O)[O-])ccc1=O [Example 128, 7-(3-((4-Bromophenyl)aminocarbonylamino)-4-pyridone-1-yl)-3,4-dihydro-6-nitro-3-oxoquinoxaline-2-carboxylic Acid]	252 to 254 °C (dec.)
O=C(Nc1ccccc1)Nc1cn(-c2cc3nc(C(=O)O)c(=O)[nH]c3cc2[N+](=O)[O-])ccc1=O [Example 129, 3,4-Dihydro-6-nitro-3-oxo-7-(3-(phenylaminocarbonylamino)-4-pyridone-1-yl)quinoxaline-2-carboxylic Acid]	282 to 284 °C (dec.)
Cn1c(=O)c(C(=O)O)nc2cc(F)c([N+](=O)[O-])cc21 [Example 162, 3,4-Dihydro-7-fluoro-4-methyl-6-nitro-3-oxoquinoxaline-2-carboxylic Acid]	173 to 175 °C
O=C(O)c1nc2cc(CN3CCOCC3)c([N+](=O)[O-])cc2[nH]c1=O (as salt: hydrochloride) [Example 160, 3,4-Dihydro-7-(morpholine-1-yl)methyl-6-nitro-3-oxoquinoxaline-2-carboxylic Acid Hydrochloride]	209 to 211 °C (dec.)
O=C(Nc1ccccc1)OCc1cn(-c2cc3nc(C(=O)O)c(=O)[nH]c3cc2C(F)(F)F)cn1 [Example 235, 3,4-Dihydro-3-oxo-7-((4-(N-phenylcarbamoyloxy)methyl)imidazole-1-yl)-6-trifluoromethylquinoxaline-2-carboxylic Acid]	193 to 195 °C (dec.)
O=C(O)c1nc2cc(N3CCN(c4ccc(F)cc4)CC3)c([N+](=O)[O-])cc2[nH]c1=O [Example 54, 3,4-Dihydro-7-(4-(4-fluorophenyl)piperazine-1-yl)-6-nitro-3-oxoquinoxaline-2-carboxylic Acid]	235.5 to 237.5 °C
CCOC(=O)c1ccc(NC(=O)OCc2cn(-c3cc4nc(C(=O)O)c(=O)[nH]c4cc3[N+](=O)[O-])cn2)cc1 [Example 278, 3,4-Dihydro-7-(4-((N-(4-ethoxycarbonylphenyl)carbamoyloxy)methyl)imidazolyl)-6-nitro-3-oxoquinoxaline-2-carboxylic Acid]	207 to 209 °C (dec.)
O=C(c1nc2cc(N3CCOCC3)c([N+](=O)[O-])cc2[nH]c1=O)N1CCOCC1 [Example 138, 3,4-Dihydro-7-morpholino-6-nitro-3-oxoquinoxaline-2-carboxylic Morpholineamide]	298 to 299 °C
O=C(NCc1ccn(-c2cc3nc(C(=O)O)c(=O)[nH]c3cc2C(F)(F)F)c1)Nc1ccccc1 [Example 188, 3,4-Dihydro-3-oxo-7-(3-((phenylaminocarbonylamino)methyl)pyrrole-1-yl)-6-trifluoromethylquinoxaline-2-carboxylic Acid]	> 300 °C
